Reference: patent US20080051379A1, “Compositions and Methods for the Treatment of Peripheral B-Cell Neoplasms” (Trustees of Boston University, priority 2004, published 2008)

Legend:
[1] = test system: cAMP levels in B-CLL cells; test: cAMP RIA, B-CLL cells; type: cell-based, human; details: 10 μM rolipram for 30 minutes; six B-CLL patients; p<0.04
Experimental: Leukemic cells from six B-CLL patients or CCRF-CEM cells were incubated for 30 minutes with media alone (CT), 10 μM rolipram (Roli), 10 μM forskolin (Fsk), 1 μM hydrocortisone (HC), or the same concentration of hydrocortisone combined with rolipram (Roli/HC) or forskolin (Fsk/HC). Lysates of the cells were then assayed for cAMP using a RIA. The cAMP level obtained from each treated B-CLL sample was normalized to that observed in the untreated leukemic cells. The CCRF-CEM data shown are representative of three experiments performed.
500,000 B-CLL or CCRF-CEM cells were incubated for 30 minutes in one mL media alone or with the addition of drugs. Cells were centrifuged and lysed in 80% ethanol. After vortexing and incubation on ice for 10 minutes, cellular debris was removed by re-centrifugation. The supernatant was dried in a Speedivac and the sample brought up in 250 μL of sample buffer as provided by the makers of a cAMP RIA kit (Amersham). 100 μL of this sample was used for each cAMP assay. The RIA kit was used according to the manufacturer's instructions.

[2] = test system: glucocorticoid-sensitive subclone (CEM-S2); test: MTS cell survival assay, CEM-S2; type: cell-based, human; details: dexamethasone-sensitive CCRF-CEM cells; 10 μM, 72 hours
Experimental: In FIG. 5A, the polyclonal parental cell line (CCRF-CEM), the single cell-derived glucocorticoid-resistant subclone (CEM-R8) and the single cell-derived glucocorticoid-sensitive subclone (CEM-S2) were cultured for 72 hours in the presence of vehicle (ETOH) or dexamethasone at the concentrations indicated and cell viability was assessed by the MTS assay as described in Methods. In FIG. 5B, the glucocorticoid-resistant subclone (CEM-R8) and the glucocorticoid-sensitive subclone (CEM-S2) were cultured for 72 hours in the presence of hydrocortisone (HC) (10 μM HC for the CEM-R8 cells and 1 μM HC for the CEM-S2 cells), 10 μM forskolin (Fsk), 10 μM rolipram (Rol), or combinations of these agents as indicated, and cell viability was assessed by the MTS assay as described in Methods. FIG. 5C: The glucocorticoid-resistant subclone (CEM-R8) and the glucocorticoid-sensitive subclone (CEM-S2) were cultured for 72 hours in the presence of varying amounts of dibutyryl cAMP (db-cAMP) in the absence (−HC) or presence (+HC) of 1 μM hydrocortisone as indicated, and cell viability was assessed by the MTS assay as described in Methods. The data shown were normalized to the vehicle control. Results represent the mean±SD of triplicate determinations.
CCRF-CEM cells were obtained from ATCC^27. Leukemic or normal mononuclear cells were obtained by centrifugation over Histopaque 1077 (Sigma Chemical Company, St. Louis, Mo.). For purification of T cells, whole mononuclear cells from normal subjects were incubated with magnetic beads coated with appropriate antibodies, then positively purified using a magnet (Miltenyi). […]
Hoechst 33342 and DiOC6(3) apoptosis assays were performed as previously described^22,28. […] The absorbance (O.D.) of the formazan product was determined at 492 nm using a plate reader (Titertek Multiscan Plus, Labsystems). Percent cell viability was calculated as follows: (O.D. control sample−O.D. blank)/(O.D. test sample−O.D. blank)×100. […]

[3] = test system: GRE luciferase construct in CCRF-CEM cells; test: GRE luciferase transactivation in CCRF-CEM cells; type: cell-based, human; details: 40 μM forskolin or 10 μM rolipram
Experimental: B-CLL cells (FIG. 3A) or CCRF-CEM cells (FIG. 3B) were transiently transfected with a luciferase construct in which expression is regulated by GRE elements, followed by culture in 10 μM rolipram (R), 40 μM forskolin (Fsk), 1 μM hydrocortisone (HC), 1 mM Rp-8Br-cAMPS (Rp-8Br) or combinations of these agents. 12 hours after addition of the drugs, the relative luminescence of the samples was determined. The data shown are the mean of 8 experiments for B-CLL and two experiments for CCRF-CEM cells. The single asterisk denote a significant difference by paired student's t test between HC alone and either R/HC (FIG. 3A) or F/HC (FIG. 3B) (p<0.02). The double asterisk denotes a significant difference between Rp-8Br-cAMPS/HC and HC alone (p<0.02).
An MMTV GRE luciferase construct, originally created by Dr. R. Evans, was a gift from Dr. Remco Spanjaard (Dept. of Otolaryngology, Boston Medical Center)^29. […] Triplicate samples were analyzed with an MGM Instruments Optocomp I luminometer (Hamden, Conn.). Analysis of cell viability (trypan blue exclusion) and total protein (Pierce) verified that equivalent numbers of viable B-CLL cells were analyzed. 100 million CCRF-CEM cells were similarly transfected, cultured and analyzed except that Nucleofector program O17 was utilized. […] Data were analyzed using a two-sided paired t test for means.

PDE4 = details: cited from earlier work

COc1ccc(C2CNC(=O)C2)cc1OC1CCCC1 (stereo not shown) [rolipram, 4-(3-cyclopentyloxy-4-methoxyphenyl)-2-pyrrolidone]
cAMP levels above that observed in untreated cells [1]: 2.5±0.7 fold | effect on cell viability as single agent [2]: no discernable effect | GRE transactivation as a single agent [3]: none | IC50 (PDE4): […]
